Results on two compounds are retold here after EP1724268A1, “COMPOUND HAVING TGF-BETA INHIBITORY ACTIVITY AND PHARMACEUTICAL COMPOSITION CONTAINING SAME” (KIRIN BEER KABUSHIKI KAISHA, priority 2004, dated 2005).

Usually inhibition stands for the drop in the measured response relative to a control, in per cent.

One assay has as its system TGFβ signal. Description: TGFβ signal inhibitory activity, (SBE)4-Luc reporter in A549 cells (Test Examples 1A and 1B). Format: cell-based, human. The conditions noted are these: Homo sapiens, A549, compounds of Reference Examples (Test Example 1B), read-out: TGFβ inhibition rate, %. The method, boiled down:
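Stable A549 line carrying (SBE)4-Luc Smad3-binding reporter treated with compound plus TGFβ-1 (2 ng/ml) for 4 hr; luciferase read by chemiluminescence. Percent inhibition relative to TGFβ-only and untreated cells, tested at 3 µM and 10 µM, some also at 1 µM.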

Assay [1] relates to mouse unilateral ureteral obstruction (UUO) model. Description: Anti-fibrotic activity, mouse UUO model, mixed feed for 10 days (Test Example 3). The conditions noted are these: UUO treatment, kidney, average of five mice ± standard deviation. In kind it is in vivo. As for the experimental part:
The anti-fibrotic activity of the compounds related to the present invention was evaluated using a mouse unilateral ureteral obstruction (UUO) model which is a renal fibrosis model. Compound r384 produced in the working example was used as the test compound. Seven week-old male BALB/c mice (available from Charles River Japan, Inc.) were purchased and were pre-raised before use in experiments. Regarding diets and drinking water, pellets CE-2 (available from CLEA JAPAN INC.) and sterile tap water were freely fed. The mice underwent laparotomy under pentobarbital anesthesia, and the left renal urinary duct was ligated. […] After administration for 4 days, the mouse left kidney was removed, and the hydroxyproline content as an index of organ fibrosis was measured by the following method. […] The absorbance at 557 nm was then measured. The content of hydroxyproline was determined from the measured data based on a calibration curve for hydroxyproline prepared using control. Further, the content of hydroxyproline thus determined was corrected according to the weight of the homogenized kidney. The anti-fibrotic activity of a compound related to the present invention was evaluated using the same model as used in Test Example 2. […]

The test system is the same in assay [2]. Description: Anti-fibrotic activity, mouse unilateral ureteral obstruction (UUO) model, oral administration (Test Example 2). Format: in vivo, BALB/c mice. The conditions noted are these: UUO treatment, left kidney, average of 7 mice ± standard deviation. As for the experimental part:
The anti-fibrotic activity of the compounds related to the present invention was evaluated using a mouse unilateral ureteral obstruction (UUO) model which is a renal fibrosis model. Compound r384 produced in the working example was used as the test compound. Seven week-old male BALB/c mice (available from Charles River Japan, Inc.) were purchased and were pre-raised before use in experiments. Regarding diets and drinking water, pellets CE-2 (available from CLEA JAPAN INC.) and sterile tap water were freely fed. The mice underwent laparotomy under pentobarbital anesthesia, and the left renal urinary duct was ligated. Thereafter, the mice underwent suturing operation and were divided into a vehicle administration group (n = 7) and a test compound administration group (n = 7) using the weight as an index. The test compound was weighed, and then one drop of 1 N HCl was added to the test compound to prepare a solution. The solution was then suspended in 0.5% carboxymethylcellulose (solvent). The suspension was forcibly orally administered twice a day with an oral sonde from the day of urinary duct ligation (5, 15, or 50 mg/kg). The solvent was administered to the vehicle administration group in the same manner as described just above.
After administration for 4 days, the mouse left kidney was removed, and the hydroxyproline content as an index of organ fibrosis was measured by the following method. Renal pieces were first placed in 6 N HCl, were homogenized, and were then heated on a heat block at 130°C for 3 hr to hydrolyze protein. Thereafter, the suspension of renal pieces was neutralized by the addition of an appropriate amount of 4 N NaOH. The neutralized suspension was centrifuged (1000 rpm, 5 min, room temperature) to obtain the supernatant as a kidney extract. […] The absorbance at 557 nm was then measured. The content of hydroxyproline was determined from the measured data based on a calibration curve for hydroxyproline prepared using control. Further, the content of hydroxyproline thus determined was corrected according to the weight of the homogenized kidney. […]

Assay [3] deals with mouse DMN hepatic fibrosis model. As to the kind of experiment: Anti-fibrotic activity, mouse DMN hepatic fibrosis model (Test Example 4). Format: in vivo, BALB/c mice. The conditions noted are these: DMN administration, 21 days, average of 6 mice ± standard deviation. As for the experimental part: The anti-fibrotic activity of a compound related to the present invention was evaluated using a mouse DMN hepatic fibrosis model as a liver fibrosis model. Compound r384 prepared in the working example was used as the test compound. Six-week-old male BALB/c mice (available from Charles River Japan, Inc.) were purchased and were pre-raised before use in experiments. The mice were divided into a vehicle administration group (n = 6) and a test compound administration group ([…]) using the weight as an index. Thereafter, dimethylnitrosoamine (DMN) diluted with physiological saline was intraperitoneally administered at 15 mg/kg three times per week for 3 weeks to induce hepatic fibrosis. The administration of the test compound was carried out from the first day of the DMN administration. The test compound was mixed at the dosage of 0.015, 0.03, and 0.06% in powder diet CE-2 (available from CLEA JAPAN INC.), and the mixtures were fed as a diet to each mouse group. After 21 days, the mice underwent laparotomy under ether anesthesia, and blood was collected from the heart, followed by measurement of the level of hyaluronic acid in blood as an index of hepatic fibrosis using a hyaluronic acid plate (Chugai Pharmaceutical Co., Ltd.).
The values in the table are average of data on 6 mice for each group ± standard deviation.

Marks after values point to notes of the source that are not given here.

Regarding `COc1cc2c(Oc3cc(C)c(C)cc3C(C)=O)ccnc2cc1OCCCN1CCOCC1.Cl` [Compound r320, 1-{2-[6-Methoxy-7-(3-morpholin-4-yl-propoxy)-quinolin-4-yloxy]-4,5-dimethyl-phenyl}-ethanone hydrochloride], the inhibition at 3 µM in the assay on TGFβ signal is 100%. Further, in the assay with TGFβ signal, the inhibition at 10 µM is 100%. The “Hydroxyproline content (mg/g protein)” value in assay [1] (0.1% mixed feed for 10 days) stood at 9.44 ± 0.53 mg/g protein; in assay [1] (0.3% mixed feed for 10 days) it was 9.19 ± 0.38 mg/g protein.

As to `COc1cc2c(Oc3cc4ccccc4nc3C)ccnc2cc1OCC(O)CO` (centres unmarked) [Compound r384, 3-[6-Methoxy-4-(2-metharl-quinolin-3-yloxy)-quinolin-7-yloxy]-propane-1,2-diol], in the assay on TGFβ signal, the inhibition at 3 µM was 100%. Further, in the assay on TGFβ signal, the inhibition at 10 µM amounted to 100%. The Hydroxyproline content turned out to be 514 ± 20.8 µg/g in assay [2] (5 mg/kg orally twice a day for 4 days), 488 ± 10.9 µg/g in assay [2] (15 mg/kg orally twice a day for 4 days) and 426 ± 14.2 µg/g in assay [2] (50 mg/kg orally twice a day for 4 days). Further, the “Blood hyaluronic acid content” value in assay [3] (0.015% mixed feed) amounted to 167.8 ± 25.0 ng/mL. Besides, the “Blood hyaluronic acid content (ng/ml)” value in assay [3] (0.06% mixed feed) was 97.2 + 11.0** ng/ml.
